{
  "source": "paper PMC10135569",
  "about": "“Does Enhanced Structural Maturity of hiPSC-Cardiomyocytes Better for the Detection of Drug-Induced Cardiotoxicity?” (Biomolecules, 2023)",
  "key": {"[1]": {"test_system": "hiPSC-CMs (iCell2 Cardiomyocytes) 2D monolayers", "assay": "Membrane potential (action potential) recordings with FluoVolt voltage-sensitive dye on the CellOPTIQ platform", "assay_type": "cell-based, human", "details": "for activity at 0.03 µM / activity at 0.1 µM / activity at 0.3 µM / activity at 1 µM: Homo sapiens, Cardiomyocyte, 0.5 h, 30 min, delta over DMSO 0.1%", "method": "(§1) Cardiomyocytes (FUJIFILM Cellular Dynamics, Madison, WI, USA) were kept at −190 °C and prepared for culture as per the manufacturer’s instructions.\n(§2) Standard fibronectin vs. Matrix Plus well coating: The cells were cultured using two different coatings in a humidified incubator at 37 °C with 5% CO2. First, 96-well glass-bottomed plates (MatTek, Ashland, MA) were coated with fibronectin ([…] in PBS supplemented with Ca^2+ and Mg^2+; Sigma, St. Louis, MO, USA) (defining FM). Second, CELLvo^TM Matrix Plus (StemBioSys, San Antonio, TX, USA), which were pre-coated on 96 well glass bottom plates and kept at 4 °C. On the day of plating, CELLvo^TM Matrix Plus plates were transferred to room temperature, rehydrated with phosphate buffer saline (PBS), incubated for 1 h at 37 °C, and washed 2× with PBS. Cells were introduced at a density of 50,000 cells/well to allow the formation of a confluent monolayer in each well (defined as MM). The maintenance protocols followed the manufacturer’s instructions and used the iCell^2 Cardiomyocytes Maintenance media for media changes every 2 days. Experiments were performed between days 5 and 6, as recommended by the manufacturers. Before beginning an experiment, cells were washed in serum-free media (SF media) (Fluorobrite DMEM, Gibco, Thermo Fisher Scientific, Horsham, UK).\n(§3) The drug powders were dissolved in DMSO, and four stock concentrations at 1000× the final target concentration were prepared in DMSO. For the experiment, an intermediate concentration 2× the target solution was prepared in SF media. The addition of drugs to the cells was accomplished by replacing 50% of the well volume with the intermediate 2× solution. The same procedure was done for vehicle control using DMSO. The experimental number n = 8/concentration/testing compound in the FM or MM condition, and n = 36 for each positive or negative control in the FM or MM condition.\nCultures of hiPSC-CMs (5–6 days post-plating) were treated with FluoVolt dye (1:1000, Invitrogen, Cat# F10488) in SF media and incubated for 20 min at 37 °C with 5% CO2 and 80% humidity. Multi-well plates were placed in the environmentally controlled stage incubator (37 °C, 5% CO2, water-saturated air atmosphere) (Okolab Inc. Burlingame, CA) of the CellOPTIQ® platform (Clyde Biosciences Ltd., Glasgow, Scotland). The FluoVolt signal was recorded from a 0.2 mm × 0.2 mm area using a 40× (numerical aperture: NA 0.6) Excitation wavelength was 470 ± 10 nm using a light-emitting diode (LED), and emitted light was collected by two photomultipliers (PMTs) at 510–560 nm (channel 1) and 590–650 nm (channel 2), respectively. LED, PMT, and associated power supplies and amplifiers were supplied by Cairn Research Ltd. (Kent, UK) and digitized at 10 kHz and stored on a computer hard drive. In the case of FluoVolt-based action potential recordings, the short wavelength (channel 1, […]) was analyzed for action potential features.\n(§4) The dye FluoVolt is loaded into the surface membrane (outer leaflet), and the dye remains within the membrane for many dots, allowing intermittent voltage measurements over the experimental period. In this study, measurements were restricted to within 30 mins of application of the drug. The measurements were made on the same area before/after drug/DMSO addition. […] Baseline spontaneous electrical activity and the associated contractility signal were recorded by capturing 10 s segments of fluorescent signal and video for 2D plates and 15 s for organoids from each well prior to compound addition. Drugs were tested at four concentrations in n = 8 independent replicates (i.e., 8 wells from a single plating) at each concentration. A vehicle control was included for each drug. A 10 s or 15 s recording was then taken 30 min after exposure to the drug or vehicle with only one concentration applied/well."}, "[2]": {"test_system": "hiPSC-CMs (iCell2 Cardiomyocytes) 2D monolayers", "assay": "Contractility measurements using video imaging (ContractilityTool / MUSCLEMOTION)", "assay_type": "cell-based, human", "details": "Homo sapiens, Cardiomyocyte, 0.5 h, 30 min, delta over DMSO 0.1%", "method": "as §1, §2, §3\nas §4, with “applied/well. Offline analysis was performed using proprietary software (CellOPTIQ®).” for “applied/well.”\nShort periods (10 s or 15 s) of video were analyzed using the ContractilityTool application (developed by F.L. Burton), which is an implementation of the MUSCLEMOTION algorithm."}, "[3]": {"details": "FM monolayer, read-out: APD30 (%DD)"}, "[4]": {"details": "FM monolayer, read-out: APD90 (%DD)"}, "[5]": {"details": "FM monolayer, read-out: CL (%DD)"}, "[6]": {"details": "FM monolayer, read-out: Trise (%DD)"}, "[7]": {"details": "MM monolayer, read-out: APD30 (%DD)"}, "[8]": {"details": "MM monolayer, read-out: APD90 (%DD)"}, "[9]": {"details": "MM monolayer, read-out: CL (%DD)"}, "[10]": {"details": "MM monolayer, read-out: Trise (%DD)"}, "[11]": {"details": "FM monolayer, read-out: CtAmp (%DD)"}, "[12]": {"details": "FM monolayer, read-out: CtD50 (%DD)"}, "[13]": {"details": "MM monolayer, read-out: CtAmp (%DD)"}, "[14]": {"details": "MM monolayer, read-out: CtD50 (%DD)"}},
  "data": [
    {"compound": "C[N+](C)(C)CCOC(N)=O", "note": "[Carbachol]", "values": [
      {"measurement": "activity at 0.03 µM", "setting": "[1]; [3]", "value": "97 ± 2.3", "unit": "%"},
      {"measurement": "activity at 0.03 µM", "setting": "[1]; [4]", "value": "99 ± 1.4", "unit": "%"},
      {"measurement": "activity at 0.03 µM", "setting": "[1]; [5]", "value": "99 ± 2.6", "unit": "%"},
      {"measurement": "activity at 0.03 µM", "setting": "[1]; [6]", "value": "104 ± 11.8", "unit": "%"},
      {"measurement": "activity at 0.1 µM", "setting": "[1]; [3]", "value": "104 ± 2.6", "unit": "%"},
      {"measurement": "activity at 0.1 µM", "setting": "[1]; [4]", "value": "100 ± 1.2", "unit": "%"},
      {"measurement": "activity at 0.1 µM", "setting": "[1]; [5]", "value": "105 ± 0.6", "unit": "%"},
      {"measurement": "activity at 0.1 µM", "setting": "[1]; [6]", "value": "125 ± 18.5", "unit": "%"},
      {"measurement": "activity at 0.3 µM", "setting": "[1]; [3]", "value": "102 ± 2.9", "unit": "%"},
      {"measurement": "activity at 0.3 µM", "setting": "[1]; [4]", "value": "103 ± 1", "unit": "%"},
      {"measurement": "activity at 0.3 µM", "setting": "[1]; [5]", "value": "109 ± 1", "unit": "%"},
      {"measurement": "activity at 0.3 µM", "setting": "[1]; [6]", "value": "118 ± 17.5", "unit": "%"},
      {"measurement": "activity at 1 µM", "setting": "[1]; [3]", "value": "103 ± 1.6", "unit": "%"},
      {"measurement": "activity at 1 µM", "setting": "[1]; [4]", "value": "110 ± 1.1", "unit": "%"},
      {"measurement": "activity at 1 µM", "setting": "[1]; [5]", "value": "114 ± 0.5", "unit": "%"},
      {"measurement": "activity at 1 µM", "setting": "[1]; [6]", "value": "95 ± 17.7", "unit": "%"},
      {"measurement": "activity at 0.03 µM", "setting": "[1]; [7]", "value": "105 ± 2.2", "unit": "%"},
      {"measurement": "activity at 0.03 µM", "setting": "[1]; [8]", "value": "103 ± 1.8", "unit": "%"},
      {"measurement": "activity at 0.03 µM", "setting": "[1]; [9]", "value": "106 ± 0.3", "unit": "%"},
      {"measurement": "activity at 0.03 µM", "setting": "[1]; [10]", "value": "186 ± 29", "unit": "%"},
      {"measurement": "activity at 0.1 µM", "setting": "[1]; [7]", "value": "106 ± 2.4", "unit": "%"},
      {"measurement": "activity at 0.1 µM", "setting": "[1]; [8]", "value": "107 ± 1.1", "unit": "%"},
      {"measurement": "activity at 0.1 µM", "setting": "[1]; [9]", "value": "115 ± 0.6", "unit": "%"},
      {"measurement": "activity at 0.1 µM", "setting": "[1]; [10]", "value": "144 ± 20.7", "unit": "%"},
      {"measurement": "activity at 0.3 µM", "setting": "[1]; [7]", "value": "111 ± 1.9", "unit": "%"},
      {"measurement": "activity at 0.3 µM", "setting": "[1]; [8]", "value": "111 ± 1.1", "unit": "%"},
      {"measurement": "activity at 0.3 µM", "setting": "[1]; [9]", "value": "122 ± 0.9", "unit": "%"},
      {"measurement": "activity at 0.3 µM", "setting": "[1]; [10]", "value": "143 ± 22.1", "unit": "%"},
      {"measurement": "activity at 1 µM", "setting": "[1]; [7]", "value": "120 ± 2.3", "unit": "%"},
      {"measurement": "activity at 1 µM", "setting": "[1]; [8]", "value": "118 ± 1", "unit": "%"},
      {"measurement": "activity at 1 µM", "setting": "[1]; [9]", "value": "131 ± 0.7", "unit": "%"},
      {"measurement": "activity at 1 µM", "setting": "[1]; [10]", "value": "143 ± 17.8", "unit": "%"},
      {"measurement": "effect on cycle length (in words)", "setting": "[1]; both FM and MM monolayers, concentration not given", "value": "concentration-dependent increase"},
      {"measurement": "activity at 0.03 µM", "setting": "[2]; [11]", "value": "94 ± 15.9", "unit": "%"},
      {"measurement": "activity at 0.03 µM", "setting": "[2]; [12]", "value": "104 ± 2.1", "unit": "%"},
      {"measurement": "activity at 0.1 µM", "setting": "[2]; [11]", "value": "85 ± 10.4", "unit": "%"},
      {"measurement": "activity at 0.1 µM", "setting": "[2]; [12]", "value": "103 ± 2", "unit": "%"},
      {"measurement": "activity at 0.3 µM", "setting": "[2]; [11]", "value": "102 ± 21.3", "unit": "%"},
      {"measurement": "activity at 0.3 µM", "setting": "[2]; [12]", "value": "108 ± 2.1", "unit": "%"},
      {"measurement": "activity at 1 µM", "setting": "[2]; [11]", "value": "109 ± 13.8", "unit": "%"},
      {"measurement": "activity at 1 µM", "setting": "[2]; [12]", "value": "107 ± 3.7", "unit": "%"},
      {"measurement": "activity at 0.03 µM", "setting": "[2]; [13]", "value": "86 ± 6.4", "unit": "%"},
      {"measurement": "activity at 0.03 µM", "setting": "[2]; [14]", "value": "98 ± 1.5", "unit": "%"},
      {"measurement": "activity at 0.1 µM", "setting": "[2]; [13]", "value": "135 ± 12.9", "unit": "%"},
      {"measurement": "activity at 0.1 µM", "setting": "[2]; [14]", "value": "102 ± 1.8", "unit": "%"},
      {"measurement": "activity at 0.3 µM", "setting": "[2]; [13]", "value": "118 ± 12.9", "unit": "%"},
      {"measurement": "activity at 0.3 µM", "setting": "[2]; [14]", "value": "111 ± 2.1", "unit": "%"},
      {"measurement": "activity at 1 µM", "setting": "[2]; [13]", "value": "114 ± 18.4", "unit": "%"},
      {"measurement": "activity at 1 µM", "setting": "[2]; [14]", "value": "118 ± 1.5", "unit": "%"}
    ]}
  ]
}
